Experimental data as given in paper PMC9841576, “Characterisation of C101248: A novel selective THIK-1 channel inhibitor for the modulation of microglial NLRP3-inflammasome” (Neuropharmacology, 2023).

Columns and labels:
[1] = tested on: NLRP3-dependent release of IL-1β; test: LPS/ATP-induced IL-1β release from adult microglia; assay type: cell-based, mouse; conditions: 0.1 and 1 μM
Description: Microglia were isolated from C57BL/6 male and female mice aged 6–10 weeks (Charles River, UK) as previously described ([Drinkall et al., 2022]). In brief, brains were isolated, minced, and digested using a Neural Tissue Dissociation Kit (Miltenyi Biotec Ltd., UK) according to manufacturer's instructions. The resulting suspension was dissociated using a Dounce tissue grinder (Sigma). Myelin was removed by centrifuging cell suspension in 33% Percoll (GE Healthcare) for 10 min at 1000 g with low break and aspiration of myelin layer. Cells were pelleted by diluting 1:4 in Ca^2+/Mg^2+ free Hank's balanced salt solution (CMF-HBSS, Gibco) and centrifuged for 10 min at 500 g. […] The eluted microglia were counted and plated onto 96-well Cell + plates (Sarstedt) at a density of 30,000 cells per well in culture medium (DMEM/F12, 10% FBS, 1% PenStrep, 2 mM glutamine, 20 ng/ml IL-34 (R&D Systems), and 50 ng/ml transforming growth factors-β1 (Miltenyi Biotec Ltd., UK)). […]
IL-1β from culture supernatants was measured with DuoSet ELISA kit (R&D Systems) following the manufacturer instructions.

[2] = molecular target: T1, THIK-1 (Homo sapiens, UniProt Q9HB14); test: Competition radioligand binding with 3H-C101505, membranes from HEK-hKCNK13 cells
T1 construct: expressed in transfected cells
T1 sequence (Q9HB14 1-408): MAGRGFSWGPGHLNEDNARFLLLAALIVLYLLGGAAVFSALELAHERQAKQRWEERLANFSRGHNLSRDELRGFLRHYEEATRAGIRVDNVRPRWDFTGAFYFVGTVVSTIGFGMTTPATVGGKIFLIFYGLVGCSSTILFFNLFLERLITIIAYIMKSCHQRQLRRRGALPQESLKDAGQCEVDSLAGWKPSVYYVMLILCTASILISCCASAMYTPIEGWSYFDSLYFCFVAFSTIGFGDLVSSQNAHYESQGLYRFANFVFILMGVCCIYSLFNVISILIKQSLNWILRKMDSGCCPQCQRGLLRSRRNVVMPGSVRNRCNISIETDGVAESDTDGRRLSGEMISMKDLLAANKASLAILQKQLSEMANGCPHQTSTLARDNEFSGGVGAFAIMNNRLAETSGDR
Description: From within the same chemotype as C101248, a structurally related compound (C101505) was tritiated for use in radioligand binding studies (specific activity 14 Ci/mmol). All radioligand binding assays were performed by Gifford Bioscience (Birmingham, UK). Cells were grown to approximately 90% confluence, washed twice with PBS and once with PBS with sucrose (10%) solution that was removed before the flasks were stored at −80 °C. Upon thawing, ice-cold lysis buffer (50 mM Tris-HCl; 5 mM MgCl2; 5 mM EDTA; protease inhibitor cocktail) was added to the flasks for 5 min (4 °C) and the cell layer scraped into collection tubes. The lysate was centrifuged at 13,000 g for 10 min (4 °C) to pellet the membranes. […] A sample of the homogenate was analysed for protein content using a BCA protein assay kit. […] Filters were then dried under a warm air stream, sealed in polyethylene, scintillation cocktail added, and the radioactivity counted in a MicroBeta TriLux counter (Wallac). […] The in vitro binding affinity (Ki) of C101248 was calculated from the experimental IC50 value using the Cheng-Prusoff equation (([Cheng and Prusoff, 1973]) Ki = IC50/(1 + ([L]/KD)), where [L] was the radioligand concentration in the displacement assay and KD was the radioligand dissociation constant determined from previous saturation binding studies.

In the case of Nc1nonc1-c1nc2ccccc2n1Cc1ccncc1 [C101248], the “effect on LPS/ATP-induced IL-1β release” value [1] is reported as “significantly attenuated”, the Ki ([2]; Cheng-Prusoff from IC50, radioligand 3H-C101505) is reported as 57 nM and the IC50 ([2]; radioligand 3H-C101505, HEK-hKCNK13 membranes, read-out: IC50, displacement of radioligand) is reported as 77 nM.
